One assay concerns MCF7. Briefly: Cytotoxicity against human MCF7 cells. The class given is functional, cell-based.
The subject of another assay is KB. Briefly: Cytotoxicity against human KB cells. The class given is functional, cell-based.

Regarding `COc1cccc2c1C(=O)c1c(O)c3c(c(O)c1C2=O)C[C@@](O)(C(=O)CO)C[C@@H]3O[C@H]1C[C@H](N)[C@H](O)[C@H](C)O1` [DOXORUBICIN], the IC50 in the assay with MCF7 and with KB was 100 nM in each case.
Turning to `CC(=O)N[C@H]1[C@H](O[C@H]2CC[C@]3(C)[C@H]4CC=C5[C@@H]6CC(C)(C)[C@@H](OC(=O)c7ccccc7N)C[C@]6(C(=O)O[C@@H]6O[C@H](CO)[C@@H](O)[C@H](O)[C@H]6O[C@@H]6O[C@@H](C)[C@H](O[C@@H]7OC[C@@H](O)[C@H](O)[C@H]7O)[C@@H](O)[C@H]6O)[C@H](O)C[C@@]5(C)[C@]4(C)CC[C@H]3C2(C)C)O[C@H](CO[C@@H]2O[C@H](C)[C@H](O)[C@H](O)[C@H]2O[C@@H]2OC[C@@H](O)[C@H](O)[C@H]2O)[C@@H](O)[C@@H]1O` [GRANDIBRACTEOSIDE A], the IC50 (in general, the concentration that inhibits the measured activity by half) in the assay with MCF7 worked out at 400 nM; in the assay on KB it was 1300 nM.
As to `CC(=O)N[C@H]1[C@H](O[C@H]2CC[C@]3(C)[C@H]4CC=C5[C@@H]6CC(C)(C)[C@@H](OC(=O)c7ccccc7N)C[C@]6(C(=O)O[C@@H]6O[C@H](CO[C@@H]7O[C@H](CO)[C@@H](O)[C@H](O)[C@H]7O)[C@@H](O)[C@H](O)[C@H]6O[C@@H]6O[C@@H](C)[C@H](O[C@@H]7OC[C@@H](O)[C@H](O)[C@H]7O)[C@@H](O)[C@H]6O)[C@H](O)C[C@@]5(C)[C@]4(C)CC[C@H]3C2(C)C)O[C@H](CO[C@@H]2O[C@H](C)[C@H](O)[C@H](O)[C@H]2O[C@@H]2OC[C@@H](O)[C@H](O)[C@H]2O)[C@@H](O)[C@@H]1O` [GRANDIBRACTEOSIDE B], the figures for the IC50 in the assay on MCF7 and with KB were 1700 nM and 2300 nM, respectively.
`CC(=O)N[C@H]1[C@H](O[C@H]2CC[C@]3(C)[C@H]4CC=C5[C@@H]6CC(C)(C)[C@@H](OC(=O)c7ccccc7N)C[C@]6(C(=O)O[C@@H]6O[C@H](CO)[C@@H](O)[C@H](O)[C@H]6O[C@@H]6O[C@@H](C)[C@H](O[C@@H]7O[C@@H](CO)[C@H](O)[C@H]7O)[C@@H](O[C@@H]7O[C@H](CO)[C@@H](O)[C@H](O)[C@H]7O)[C@H]6O)[C@H](O)C[C@@]5(C)[C@]4(C)CC[C@H]3C2(C)C)O[C@H](CO[C@@H]2O[C@H](C)[C@H](O)[C@H](O)[C@H]2O[C@@H]2OC[C@@H](O)[C@H](O)[C@H]2O)[C@@H](O)[C@@H]1O` [GRANDIBRACTEOSIDE C]: the IC50 in the assay on MCF7 amounted to 1700 nM; with KB it was 2300 nM.

The record behind these values is ChEMBL document CHEMBL1158786, “Triterpenoid saponin anthranilates from Albizia grandibracteata leaves ingested by primates in Uganda” (J Nat Prod, 2005).
